# Laboratory results reported in article PMC4750701, “Role of Mitochondrial RNA Polymerase in the Toxicity of Nucleotide Inhibitors of Hepatitis C Virus” (Antimicrobial Agents and Chemotherapy, 2016).
# Like-named read-outs stand apart in the source and are kept apart here.
# Legend:
# [1] = biological target: T1, RNA PolIII (Homo sapiens, UniProt O14802+Q9NW08); experiment: RNA PolIII inhibition assay; format: biochemical; details: competing NTP 100 μM CTP and GTP, 500 μM ATP; read-out: Mean IC50 ± SD for RNA PolIII
# T1 construct: complexes were isolated from rat NSN1 cells and HeLa cells, respectively; made in house; host or cells: HeLa cells expressing a FLAG-tagged Pol III subunit
# Description: (§1) Human DNA polymerase alpha, isolated from HeLa cell extracts, was from CHIMERx (Madison, WI). Recombinant human DNA polymerase beta, expressed in E. coli, was a gift from Zucai Suo at The Ohio State University. Recombinant human DNA polymerase gamma (including both the large subunit and the small subunit) was cloned, expressed, and purified from insect cells by Gilead Sciences (Foster City, CA) ([13]). RNA PolII was purchased as part of the HeLaScribe nuclear extract in vitro transcription system kit from Promega (Madison, WI). The recombinant human PolRMT and the transcription factors mitochondrial transcription factor A (mtTFA) and B2 (mtTFB2) were purchased from Enzymax (Lexington, KY). FLAG epitope-tagged RNA PolI and PolIII complexes were isolated from rat NSN1 cells and HeLa cells, respectively ([17], [18]). The inhibition of DNA polymerases alpha, beta, and gamma, PolRMT, and PolII and the rate of single-nucleotide incorporation by PolRMT have been described previously in detail ([12], [13], [19]). Inhibition of RNA PolI and PolIII was studied using published methods ([20], [21]). All concentrations were final unless noted otherwise. For the RNA PolI inhibition assay, a reaction mixture containing 50 mM HEPES (pH 7.9), 20% glycerol, 100 mM KCl, 1 mM dithiothreitol (DTT), 50 μg/ml calf thymus DNA, 4 mM MgCl2, 5 or 80 μM UTP (0.25 μl of [5,6-^3H]UTP, >25 Ci/mmol; PerkinElmer), 1 mM noncompeting NTP, competing NTP (5 μM for GTP, CTP, and UTP and 25 μM for ATP), and various concentrations (0 to 500 μM) of NTP analogs was preincubated at 30°C for 5 min. […] After incubation at 30°C for 20 min to 1 h, the reactions were terminated by pipetting the mixtures onto DEAE-cellulose discs (DE81; Whatman), and the products analyzed as described previously ([20], [21]).
# The RNA PolIII inhibition assay was conducted in a similar manner, except that the concentrations of the competing NTP were modified to 100 μM for CTP and GTP and 500 μM for ATP to compensate for the low assay signal at lower NTP concentrations.
# [2] = biological target: T2, RNA PolII (Homo sapiens, UniProt P24928+P30876); experiment: Inhibition of RNA PolII (HeLaScribe nuclear extract transcription); format: biochemical; details: nucleotide analogs (Table 6); read-out: Mean IC50 ± SD for RNA PolII
# T2 construct: purchased as part of the HeLaScribe nuclear extract in vitro transcription system kit; purchased Promega (Madison, WI); host or cells: HeLa nuclear extract (endogenous enzyme)
# Description: (§2) Activated fish sperm DNA was purchased from USB/Affymetrix (Santa Clara, CA) and used as a template for the DNA polymerases alpha, beta, and gamma. The DNA template used in the RNA Pol II assay was a 1,188-bp restriction fragment containing the cytomegalovirus (CMV) immediate early promoter (Promega, Madison, WI). The RNA and DNA oligonucleotides used in the mitochondrial RNA polymerase assay (see Table S1 in the supplemental material) were synthesized and PAGE purified by Thermo Scientific/Dharmacon (Lafayette, CO). RNA primer R12 was 5′-^32P-phosphorylated with [γ-^32P]ATP (3,000 Ci/mmol) and T4 kinase (New England BioLabs, Ipswich, MA).
# as §1
# [3] = biological target: T3, recombinant human PolRMT (Homo sapiens, UniProt O00411); experiment: Inhibition of PolRMT-catalyzed RNA synthesis; format: biochemical; details: read-out: Mean IC50 ± SD for PolRMT
# T3 construct: purchased Enzymax (Lexington, KY)
# Description: as §2, with “The DNA template used in the RNA Pol II assay was a 1,188-bp restriction fragment containing the cytomegalovirus (CMV) immediate early promoter (Promega, Madison, WI).” left out
# as §1, with “otherwise.” for “otherwise. For the RNA PolI inhibition assay, a reaction mixture containing 50 mM HEPES (pH 7.9), 20% glycerol, 100 mM KCl, 1 mM dithiothreitol (DTT), 50 μg/ml calf thymus DNA, 4 mM MgCl2, 5 or 80 μM UTP (0.25 μl of [5,6-^3H]UTP, >25 Ci/mmol; PerkinElmer), 1 mM noncompeting NTP, competing NTP (5 μM for GTP, CTP, and UTP and 25 μM for ATP), and various concentrations (0 to 500 μM) of NTP analogs was preincubated at 30°C for 5 min.”
# [4] = biological target: T4, RNA PolI (Rattus norvegicus, UniProt O54889); experiment: RNA PolI inhibition assay; format: biochemical; details: NTP analogs 0 to 500 μM; read-out: Mean IC50 ± SD for RNA PolI
# T4 construct: complexes were isolated from rat NSN1 cells and HeLa cells, respectively; made in house; host or cells: rat NSN1 cells expressing a FLAG-tagged Pol I subunit
# Description: as §1
# [5] = Cytotoxicity in stimulated PBMCs, 5 days; details: human, stimulated PBMCs
# Procedure: (§4) Human peripheral blood mononuclear cells (PBMCs) were isolated from human buffy coats obtained from healthy volunteers (Stanford Blood Bank, Palo Alto, CA) using standard Ficoll separation and stimulated as described elsewhere ([13]) and were tested at both quiescent and stimulated stages. Quiescent PBMCs were stimulated with 10 units per ml of recombinant human interleukin 2 (hIL-2) and 1 μg per ml phytohemagglutinin P (PHA-P) for 48 h prior to drug treatment.
# (§5) All cells were cultured at 37°C in a 5% CO2 incubator with 90% humidity unless noted otherwise. […] All cells were treated with the various compounds for 5 days, except for human erythroid and myeloid progenitors, which were treated for 14 days. After the incubation period, cell viability was measured by the addition of CellTiter Glo viability reagents (Promega, Madison, WI). The luminescence signal was quantified on an Envision luminescence plate reader (PerkinElmer, Waltham, MA) after incubation of the reagents and cells for 10 min at room temperature. […] CC50 values were calculated as the average of the results of three or four independent experiments.
# (§6) Human peripheral blood mononuclear cells (PBMCs) were isolated from human buffy coats
# (§7) obtained from normal healthy volunteers (Stanford Medical School Blood Center, Palo Alto,
# (§8) CA). Total PBMCs were isolated from buffy coats using standard Ficoll separation and sterile
# (§9) cellular isolation techniques performed in a bio-safety cabinet (1). Except where noted, the
# (§10) procedure was carried out at room temperature. The final PBMCs pellet was resuspended in
# (§11) Logan, UT), penicillin 100 units/mL and streptomycin 100 µg/mL (Gibco). For quiescent
# (§12) PBMCs cultures, total cells were seeded in 96-well plates at a density of 1 x 10^6 cells per well, followed by immediate drug treatment. Stimulated PBMCs cultures were set up by seeding the freshly isolated PBMCs in T-175cm2 tissue culture flasks in 100 mL of RPMI containing the same components as the ones used for the quiescent PBMCs but with the addition of 10 units per mL of recombinant human interleukin-2 (hIL-2, Roche, Indianapolis, IN), and 1 µg per mL phytohemagglutinin-P (PHA-P, Sigma-Aldrich, St. Louis, MO) at density of 2  10^6 cells per mL for 48 hours at 37C in a 5% CO2 incubator with 90% humidity, prior to drug treatment.
# [6] = Cytotoxicity in primary human hepatocytes, 5 days; details: human, primary human hepatocytes
# Procedure: (§13) Primary human hepatocytes were from Bioreclamation IVT (Westbury, NY) or Life Technologies (Carlsbad, CA).
# as §5
# [7] = Bone marrow myeloid progenitor colony assay, 14 days; format: cell-based, human; details: human, human bone marrow myeloid progenitors, read-out: Mean CC50 ± SD in Bone marrow cells Myeloid
# [8] = Bone marrow erythroid progenitor colony assay, 14 days; format: cell-based, human; details: human, human bone marrow erythroid progenitors, read-out: Mean CC50 ± SD in Bone marrow cells Erythroid
# [9] = Cytotoxicity in primary rat neonatal cardiomyocytes, 5 days; format: cell-based; details: Sprague Dawley, primary rat neonatal cardiomyocytes, 5-day treatment, read-out: CC50 (mean ± standard deviation) in primary rat cardiomyocytes
# [10] = tested on: nuclear DNA-encoded succinate dehydrogenase (SDH-A; complex II) protein level; experiment: Nuclear protein synthesis (SDH-A, MitoBiogenesis in-cell ELISA) in PC-3 cells; format: cell-based, human; details: human, read-out: Mean CC50 ± SD causing General cellular toxicity: Protein synthesis
# Procedure: (§3) PC-3 cells were treated with the compounds for 5 days and analyzed with the MitoTox MitoBiogenesis in-cell enzyme-linked immunosorbent assay (ELISA) kit (MitoSciences/Abcam, Eugene, Oregon) as described previously ([13]). The assay uses quantitative immunocytochemistry to measure the protein levels of nuclear DNA-encoded succinate dehydrogenase (SDH-A; complex II [succinate dehydrogenase]) and mitochondrial DNA-encoded cytochrome c oxidase (COX-1; complex IV [cytochrome c oxidase]) in cultured cells.
# [11] = Cytotoxicity in HepG2 (galactose) cells, 5-day treatment; details: human, HepG2 cells (galactose)
# Procedure: as §5
# Cell Culture and Cytotoxicity Studies
# (§14) The Huh-7 cells were maintained in growth medium containing Dulbecco's Modified Eagle
# (§15) Medium (DMEM, Cellgro) supplemented with 1% Nonessential Amino Acids (NEAA, Cellgro,
# (§16) Manassas, VA), 10% fetal bovine serum (FBS, HyClone, Logan, UT) and 1% Penicillin-
# (§17) streptomycin-glutamate (PSG, Invitrogen, Carlsbad, CA). The cells were passaged twice weekly
# (§18) and maintained at 90% confluence densities.
# (§19) The HepG2 cells were maintained in Eagle’s Minimum Essential Medium (EMEM) from ATCC
# (§20) (Manassas, VA) supplemented with 10% FBS, 100 units/mL penicillin and 100 µg/mL
# (§21) streptomycin (P/S) (Gibco). The cells were passaged twice weekly and maintained at 90%
# (§22) The PC-3 cells were maintained in Kaighn’s F12 medium (Gibco, Carlsbad, CA) supplemented
# (§23) with 10% FBS (HyClone, Logan, UT), 100 units/mL penicillin and 100 µg/mL streptomycin
# (§24) (P/S) (Gibco). The cells were passaged twice weekly and maintained at 90% confluence. Cells
# (§25) between passages 4 and 15 were used in the assays.
# (§26) The fibroblast cell line MRC-5 cell line derived from normal lung tissue, was purchased from
# (§27) ATCC (Manassas, VA) and cultured in Minimum Essential Medium (MEM) (Cellgro, Manassas,
# (§28) VA) supplemented with 10% FBS (HyClone, Logan, UT) and 1% PSG (Invitrogen). The cells
# (§29) were passaged twice weekly and maintained at 90% confluence densities.
# [12] = Cytotoxicity in MT-4 T-cells, 5-day treatment; details: human, MT-4 cells
# Procedure: as §13, §5
# [13] = Cytotoxicity in quiescent PBMCs, 5 days; details: human, quiescent PBMCs
# Procedure: as §4, §5, §6, §7, §8, §9, §10, §11, §12
# [14] = tested on: mitochondrial spare respiratory capacity; experiment: Oxygen consumption rate / spare respiratory capacity in PC-3 cells; details: human, PC-3 cells, pH 7.4
# Procedure: (§30) Mitochondrial respiration was monitored by measuring the rate of oxygen consumption (OCR) of PC-3 cells after 3-day treatments with the compounds, using a Seahorse extracellular flux analyzer (XF^e-96) based on published protocols ([22][–][24]). The optimal cell seeding was determined by measuring the basal OCR of PC-3 cells that were seeded at different densities of 2.5 × 10^3, 5 × 10^3, 7.5 × 10^3, and 10 × 10^3 cells/well in XF 96-well plates (Seahorse Bioscience, North Billerica, MA) and incubated with 0.5% dimethyl sulfoxide (DMSO) for 3 days. […] Each reagent in the Mito Stress test kit (Seahorse Biosciences), i.e., ATP synthase inhibitor oligomycin, mitochondrial uncoupler carbonyl cyanide-4-(trifluoromethoxy)phenylhydrazone (FCCP), and a fixed-ratio mixture of the mitochondrial complex I (NADH dehydrogenase) inhibitor rotenone and the complex III (CoQH2-cytochrome c reductase) inhibitor antimycin A, was titrated. The lowest concentration that reached the maximal effect was chosen for each reagent. The OCR signals were normalized by cell numbers using DNA content determined by Hoechst's stain as described below.
# (§31) PC-3 cells were seeded at a density of 5 × 10^3 cells/well in XF 96-well plates and incubated with the compounds for 3 days. On the day of the assay, the cell medium was replaced with XF assay medium (pH 7.4) containing 10 mM glucose and 1 mM freshly prepared pyruvate. Mitochondrial respiration was monitored by measuring OCR on a Seahorse extracellular flux analyzer (XF^e-96). All concentrations listed are the final concentration after mixing unless noted otherwise. […] Spare respiratory capacity was obtained by subtracting the rate of basal respiration from the rate of maximal respiration.
# (§32) The cells were lysed by freezing at −80°C for >2 h. […] In parallel, another set of cells was treated with the compounds for 3 days and the ATP levels were measured using CellTiter Glo viability reagents (Promega, Madison, WI).
# [15] = tested on: mitochondrial spare respiratory capacity in PC-3 cells; experiment: as above; details: PC-3 cells, 3-day treatments
# Procedure: as §30, §31, §32
# [16] = Cytotoxicity in MRC5 fibroblasts, 5-day treatment; details: human, MRC5 fibroblasts
# Procedure: as §5
# Cell Culture and Cytotoxicity Studies
# as §14, §15, §16, §17, §18, §19, §20, §21, §22, §23, §24, §25, §26, §27, §28, §29
# [17] = Cytotoxicity in Huh7 cells, 5-day treatment (CellTiter Glo); details: human, Huh-7 cells
# Procedure: as §5
# Cell Culture and Cytotoxicity Studies
# as §14, §15, §16, §17, §18, §19, §20, §21, §22, §23, §24, §25, §26, §27, §28, §29
# [18] = Cytotoxicity / ATP level in PC-3 cells, 5-day treatment; details: human, PC-3 cells
# [19] = tested on: mitochondrial DNA-encoded cytochrome c oxidase (COX-1; complex IV) protein level; experiment: Mitochondrial protein synthesis assay (COX-1, MitoBiogenesis in-cell ELISA) in PC-3 cells; format: cell-based, human; details: human; PC-3 cells, COX-1, 5 days; read-out: Mean CC50 ± SD causing Mitochondrial toxicity: Protein synthesis
# Procedure: as §3
# [20] = tested on: mitochondrial DNA-encoded cytochrome c oxidase (COX-1); experiment: as above; format: cell-based, human; details: PC-3 cells, 5-day treatments
# Procedure: as §3
# [21] = tested on: RNA transcription products from PolI (preribosome), PolII (myc), and PolRMT (ATP6) in PC-3 cells; experiment: RNA transcripts in PC-3 cells by RT-PCR; format: cell-based, human; details: 5 μM, 1-day treatment
# Procedure: CX-5461, a known specific RNA PolI inhibitor, was used as the positive control ([25]). The growth medium was aspirated and replaced with 200 μl of 100 μM BMS-986094, 5 μM CX-5461, or DMSO control prepared in growth medium. At selected time points (0.5, 1, 4, 8, and 24 h), duplicate wells of the compounds and DMSO control were aspirated, the cells were washed 1× with PBS (pH 7.4), and 100 μl of RNA lysis buffer was added (Promega, Sunnyvale, CA). RNA was purified using the Wizard SV 96 total RNA isolation kit (Promega) and eluted in 100 μl of nuclease-free water. The TaqMan RNA-to-Ct 1-step kit (ABI/Life Technologies) was used for reverse transcription-quantitative PCR (RT-qPCR) amplification and quantification, using the 7900HT Fast real-time PCR system (ABI) under the following conditions: 15 min at 48°C for reverse transcription and 10 min at 95°C for activation, followed by 40 cycles of 15 s at 95°C for denaturation and 1 min at 60°C for annealing and extension. […] Transcripts were quantified relative to the standard curves, and the results expressed as the percentages of the average value of DMSO control wells.
# T3 sequence (O00411 42-1230): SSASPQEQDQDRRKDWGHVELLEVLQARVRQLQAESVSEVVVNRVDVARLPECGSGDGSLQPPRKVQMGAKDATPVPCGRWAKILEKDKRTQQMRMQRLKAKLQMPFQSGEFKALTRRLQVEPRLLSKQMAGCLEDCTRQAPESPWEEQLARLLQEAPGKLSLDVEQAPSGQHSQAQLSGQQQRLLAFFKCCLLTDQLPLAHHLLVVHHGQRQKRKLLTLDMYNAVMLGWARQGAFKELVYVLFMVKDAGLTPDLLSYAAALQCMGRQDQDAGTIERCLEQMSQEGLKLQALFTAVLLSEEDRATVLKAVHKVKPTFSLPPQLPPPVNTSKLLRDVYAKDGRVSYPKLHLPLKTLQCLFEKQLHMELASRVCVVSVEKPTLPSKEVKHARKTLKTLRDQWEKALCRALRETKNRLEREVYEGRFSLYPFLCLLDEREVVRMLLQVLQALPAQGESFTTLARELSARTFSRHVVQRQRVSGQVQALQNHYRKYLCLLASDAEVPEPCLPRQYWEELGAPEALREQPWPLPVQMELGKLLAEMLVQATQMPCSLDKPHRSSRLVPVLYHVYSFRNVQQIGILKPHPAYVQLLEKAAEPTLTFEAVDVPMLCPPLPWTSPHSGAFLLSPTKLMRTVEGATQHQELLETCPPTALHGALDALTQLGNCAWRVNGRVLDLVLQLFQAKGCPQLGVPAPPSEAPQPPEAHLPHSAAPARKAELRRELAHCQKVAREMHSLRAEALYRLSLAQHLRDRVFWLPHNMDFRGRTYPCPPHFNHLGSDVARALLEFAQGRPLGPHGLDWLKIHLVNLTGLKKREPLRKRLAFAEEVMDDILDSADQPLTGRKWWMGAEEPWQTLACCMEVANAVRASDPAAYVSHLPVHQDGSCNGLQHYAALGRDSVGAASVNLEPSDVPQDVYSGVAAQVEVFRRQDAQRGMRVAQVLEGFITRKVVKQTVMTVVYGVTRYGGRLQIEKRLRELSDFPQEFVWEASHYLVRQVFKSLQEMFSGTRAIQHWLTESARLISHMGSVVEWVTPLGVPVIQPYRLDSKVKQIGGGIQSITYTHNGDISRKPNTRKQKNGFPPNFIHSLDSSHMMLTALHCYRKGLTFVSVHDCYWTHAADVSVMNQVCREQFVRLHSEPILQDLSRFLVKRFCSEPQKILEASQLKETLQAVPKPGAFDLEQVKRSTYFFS
# T4 sequence (O54889 whole entry): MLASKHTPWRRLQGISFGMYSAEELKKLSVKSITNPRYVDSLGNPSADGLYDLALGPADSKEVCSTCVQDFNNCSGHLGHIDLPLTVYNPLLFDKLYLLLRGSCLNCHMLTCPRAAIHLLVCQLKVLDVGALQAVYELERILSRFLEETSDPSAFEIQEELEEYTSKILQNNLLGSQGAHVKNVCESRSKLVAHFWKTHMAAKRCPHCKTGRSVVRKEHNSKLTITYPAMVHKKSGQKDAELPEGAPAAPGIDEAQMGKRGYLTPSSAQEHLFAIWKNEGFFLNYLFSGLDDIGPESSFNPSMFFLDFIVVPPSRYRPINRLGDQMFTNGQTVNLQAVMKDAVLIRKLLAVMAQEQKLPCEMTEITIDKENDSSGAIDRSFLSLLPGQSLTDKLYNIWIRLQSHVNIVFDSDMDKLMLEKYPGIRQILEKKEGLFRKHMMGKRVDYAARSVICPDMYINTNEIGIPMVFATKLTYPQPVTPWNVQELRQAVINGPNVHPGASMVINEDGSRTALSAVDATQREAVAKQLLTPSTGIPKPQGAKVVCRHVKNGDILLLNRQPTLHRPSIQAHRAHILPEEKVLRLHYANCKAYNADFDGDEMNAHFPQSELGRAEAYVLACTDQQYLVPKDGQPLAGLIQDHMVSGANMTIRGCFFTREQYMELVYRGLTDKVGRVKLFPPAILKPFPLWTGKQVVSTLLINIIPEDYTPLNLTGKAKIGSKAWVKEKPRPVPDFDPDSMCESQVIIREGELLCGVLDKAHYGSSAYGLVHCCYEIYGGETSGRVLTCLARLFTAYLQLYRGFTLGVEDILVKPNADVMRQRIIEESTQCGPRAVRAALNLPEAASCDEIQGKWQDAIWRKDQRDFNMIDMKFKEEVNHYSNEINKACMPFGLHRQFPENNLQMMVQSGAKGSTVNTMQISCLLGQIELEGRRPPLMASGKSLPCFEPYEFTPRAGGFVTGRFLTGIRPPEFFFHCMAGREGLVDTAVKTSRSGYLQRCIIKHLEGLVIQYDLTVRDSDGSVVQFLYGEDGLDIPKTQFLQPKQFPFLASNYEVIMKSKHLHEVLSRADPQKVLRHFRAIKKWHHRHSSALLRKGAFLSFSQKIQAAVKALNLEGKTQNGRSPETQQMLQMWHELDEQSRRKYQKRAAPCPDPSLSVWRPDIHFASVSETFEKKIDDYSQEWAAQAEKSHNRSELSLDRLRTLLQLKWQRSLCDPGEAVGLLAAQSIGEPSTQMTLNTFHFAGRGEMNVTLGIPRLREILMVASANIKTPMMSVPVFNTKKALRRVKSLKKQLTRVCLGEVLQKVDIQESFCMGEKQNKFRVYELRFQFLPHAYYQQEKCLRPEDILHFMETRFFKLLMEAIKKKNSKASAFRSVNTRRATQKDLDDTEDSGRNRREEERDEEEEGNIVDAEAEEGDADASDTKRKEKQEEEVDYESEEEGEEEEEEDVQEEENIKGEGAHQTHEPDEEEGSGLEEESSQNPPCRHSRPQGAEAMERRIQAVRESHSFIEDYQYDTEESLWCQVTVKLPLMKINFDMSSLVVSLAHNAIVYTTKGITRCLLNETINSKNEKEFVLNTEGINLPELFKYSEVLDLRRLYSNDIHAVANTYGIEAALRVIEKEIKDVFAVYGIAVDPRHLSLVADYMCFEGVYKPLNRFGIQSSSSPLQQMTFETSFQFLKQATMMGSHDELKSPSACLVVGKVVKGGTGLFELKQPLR
smiles,measurement,setting,value
C[C@@]1(O)[C@H](O)[C@@H](COP(=O)(O)OP(=O)(O)OP(=O)(O)O)O[C@H]1n1ccc(=O)[nH]c1=O [2′CMeUTP],IC50,[1],> 500 µM
same,IC50,[2],> 500 µM
same,IC50,[3]; nucleotide analogs (Table 6),240 ± 30 µM
same,IC50,[4],690 ± 230 µM
COc1ccc(C[C@H](N)C(=O)N[C@H]2[C@@H](O)[C@H](n3cnc4c(N(C)C)ncnc43)O[C@@H]2CO)cc1 [Puromycin],CC50 at 5 days,[5],1 ± 0.2 µM
same,CC50 at 5 days,[6],1.9 ± 0.8 µM
same,CC50 at 14 days,[7],0.27 ± 0.04 µM
same,CC50 at 14 days,[8],0.36 ± 0.06 µM
same,CC50 at 5 days,[9],0.33 ± 0.05 µM
same,CC50 at 5 days,[10],0.15 ± 0.01 µM
same,CC50 at 5 days,[11],0.65 ± 0.18 µM
same,CC50 at 5 days,[12],0.16 ± 0.06 µM
same,CC50 at 5 days,[13],4.5 ± 1.9 µM
same,CC50 at 3 days,[14],0.49 ± 0.11 µM
same,selectivity of effect on spare respiratory capacity versus DNA and ATP levels,[15],"nonselective inhibition of the spare respiratory capacity, DNA, and ATP levels"
same,CC50 at 5 days,[16],0.24 ± 0.05 µM
same,CC50 at 5 days,[17],0.52 ± 0.19 µM
same,CC50 at 5 days,[18],0.22 ± 0.07 µM
same,CC50 at 5 days,[19],0.12 ± 0.01 µM
same,selectivity of effect on COX-1 versus SDH-A and ATP levels,[20],"nonselective inhibitive effects on the COX-1, SDH-A, and ATP levels"
Cc1cnc(CNC(=O)c2c(=O)c3ccc(N4CCCN(C)CC4)nc3n3c2sc2ccccc23)cn1 [CX-5461],"relative levels of RNA transcripts (pre-rRNA, myc, mitochondrial ATP6)",[21],selectively decreased pre-rRNA but had no effect on the levels of myc and mitochondrial ATP6 RNAs
Nc1nc2c(ncn2[C@@H]2O[C@H](COP(=O)(O)OP(=O)(O)OP(=O)(O)O)C[C@H]2O)c(=O)[nH]1 [3′deoxyGTP],IC50,[1],104 ± 20 µM
same,IC50,[2],> 500 µM
same,IC50,[3]; nucleotide analogs (Table 6),4.2 ± 1.4 µM
same,IC50,[3]; triphosphate form of the compound tested (Table 4),4.2 ± 1.4 µM
same,IC50,[4],25 ± 2 µM
